Tested on: BVDV
Experiment: microbe, parasite or virus in culture
Type: cell-based
Details: Bovine viral diarrhea virus isolates and strains, MDBK, read-out: BVDV EC50
For `COc1ccc(C(=O)Nc2ccc(Cn3nnc4ccccc43)cc2)cc1` [86c], the EC50 was 3 µM. In the case of `C[C@@]1(O)[C@H](O)[C@@H](CO)O[C@H]1n1cnc2c(=O)[nH]c(N)nc21` [NM108, 2′-C-methyl-guanosine, reference compound], the EC50 is reported as 1.5 µM. Compound `NC(=O)c1ncn([C@@H]2O[C@H](CO)[C@@H](O)[C@H]2O)n1` [Ribav, ribavirin, reference compound] has an EC50 of 12 µM.

Same assay, conditions: Bovine viral diarrhea virus isolates and strains, MDBK, read-out: BVDV EC50, second value after slash
`NC(=O)c1ncn([C@@H]2O[C@H](CO)[C@@H](O)[C@H]2O)n1` [Ribav, ribavirin, reference compound] gave an EC50 of 18 µM.

Tested on: YFV
Experiment: microbe, parasite or virus in culture
Type: cell-based
Details: Yellow fever virus, BHK-21, read-out: YFV EC50
Work on `C[C@@]1(O)[C@H](O)[C@@H](CO)O[C@H]1n1cnc2c(=O)[nH]c(N)nc21` [NM108, 2′-C-methyl-guanosine, reference compound] yielded an EC50 of 1 µM.

Tested on: CVB5
Experiment: microbe, parasite or virus in culture
Type: cell-based, human enterovirus B (coxsackievirus B5)
Details: not given
In the case of `CC(=O)Nc1cccc(Cn2nnc3cc(Cl)c(Cl)cc32)c1` [35a], the “antiviral activity (in words)” value is reported as “no antiviral activity”. In the case of `CCC(=O)Nc1cccc(Cn2nnc3cc(Cl)c(Cl)cc32)c1` [36a], the “antiviral activity (in words)” value is reported as “no antiviral activity”.

Same assay, conditions: Enterovirus B, CVB5, Vero 76, read-out: CVB5 EC50
In the case of `Cc1cc2nnn(Cc3ccc(N)cc3)c2cc1C` [12b], the EC50 is reported as 100 µM. For `Nc1ccc(Cn2nnc3c(F)cccc32)cc1` [12e], the EC50 was 100 µM. `Cc1cc(CCCOc2c(C)cc(-c3noc(C(F)(F)F)n3)cc2C)on1` [Plec, pleconaril, reference compound] showed an EC50 of 0.005 ± 0.002 µM.

Tested on: Sb-1
Experiment: microbe, parasite or virus in culture
Type: cell-based, human enterovirus C (poliovirus type-1)
Details: Enterovirus C, Vero 76, read-out: Sb-1 EC50
For `Cc1cc(CCCOc2c(C)cc(-c3noc(C(F)(F)F)n3)cc2C)on1` [Plec, pleconaril, reference compound], the EC50 was 2 ± 0.62 µM.

Tested on: HSV-1
Experiment: microbe, parasite or virus in culture
Type: cell-based, human herpesvirus 1
Details: Human alphaherpesvirus 1, Vero 76, read-out: HSV-1 EC50
With `Nc1nc2c(ncn2COCCO)c(=O)[nH]1` [ACG, acycloguanosine, reference compound] the EC50 was 2.4 ± 0.6 µM.

Tested on: not given
Experiment: not given
Details: not given
Work on `CCCNC(=O)Nc1ccc(Cn2nnc3ccccc32)cc1` yielded a melting point of 165 to 167 °C. Compound `O=C(Nc1ccc(Cn2nnc3ccccc32)cc1)NC1CCCCC1` has a melting point of 141 to 143 °C. Work on `O=C(Nc1ccccc1)Nc1ccc(Cn2nnc3ccccc32)cc1` yielded a melting point of 159 to 161 °C. Compound `CCNC(=O)Nc1ccc(Cn2nnc3cc(F)c(F)cc32)cc1` has a melting point of 286 to 287 °C. With `CCCNC(=O)Nc1ccc(Cn2nnc3cc(F)c(F)cc32)cc1` the melting point was 286 to 287 °C. In the case of `CCCCNC(=O)Nc1ccc(Cn2nnc3cc(F)c(F)cc32)cc1`, the melting point is reported as 193 to 194 °C. Compound `O=C(Nc1ccc(Cn2nnc3cc(F)c(F)cc32)cc1)NC1CCCCC1` has a melting point of 203 to 204 °C. For `CC(=O)Nc1ccc(Cn2nnc3c(F)cccc32)cc1`, the melting point was 233 to 234 °C. With `CCC(=O)Nc1ccc(Cn2nnc3c(F)cccc32)cc1` the melting point was 244 to 246 °C. `CCCC(=O)Nc1ccc(Cn2nnc3c(F)cccc32)cc1` showed a melting point of 215 to 216 °C. `O=C(Nc1ccc(Cn2nnc3c(F)cccc32)cc1)c1ccccc1` gave a melting point of 214 to 217 °C. `COc1ccc(C(=O)Nc2ccc(Cn3nnc4c(F)cccc43)cc2)cc1` showed a melting point of 266 to 268 °C. `O=C(Nc1ccc(Cn2nnc3c(F)cccc32)cc1)c1ccc([N+](=O)[O-])cc1` gave a melting point of 272 to 274 °C. `CC(=O)Nc1cccc(Cn2nc3cc(C)c(C)cc3n2)c1` gave a melting point of 184 to 187 °C. In the case of `CCC(=O)Nc1cccc(Cn2nc3cc(C)c(C)cc3n2)c1`, the melting point is reported as 178 to 182 °C. `Cc1cc2nn(Cc3cccc(NC(=O)c4ccc(Cl)cc4)c3)nc2cc1C` gave a melting point of 246 to 247 °C. `Cc1cc2nn(Cc3cccc(NC(=O)c4ccc(Br)cc4)c3)nc2cc1C` gave a melting point of 267 to 268 °C. `Cc1cc2nn(Cc3cccc(NC(=O)c4ccc([N+](=O)[O-])cc4)c3)nc2cc1C` showed a melting point of 184 to 187 °C. Work on `CCNC(=O)Nc1cccc(Cn2nc3cc(C)c(C)cc3n2)c1` yielded a melting point of 218 to 219 °C. With `CCCNC(=O)Nc1cccc(Cn2nc3cc(C)c(C)cc3n2)c1` the melting point was 204 to 206 °C. `Cc1cc2nn(Cc3cccc(NC(=O)NC4CCCC4)c3)nc2cc1C` gave a melting point of 298 to 299 °C. For `Cc1cc2nn(Cc3cccc(NC(=O)NC4CCCCC4)c3)nc2cc1C`, the melting point was 299 to 300 °C. With `CC(=O)Nc1cccc(Cn2nnc3cc(C)c(C)cc32)c1` the melting point was 198 to 200 °C. `CCC(=O)Nc1cccc(Cn2nnc3cc(C)c(C)cc32)c1` showed a melting point of 155 to 157 °C. In the case of `Cc1ccc(C(=O)Nc2cccc(Cn3nnc4cc(Cl)c(Cl)cc43)c2)cc1`, the melting point is reported as 199 to 200 °C. In the case of `COc1ccc(C(=O)Nc2cccc(Cn3nnc4cc(Cl)c(Cl)cc43)c2)cc1`, the melting point is reported as 221 to 223 °C. Work on `O=C(Nc1cccc(Cn2nnc3cc(Cl)c(Cl)cc32)c1)c1ccc(F)cc1` yielded a melting point of 184 to 186 °C. Work on `N#Cc1ccc(C(=O)Nc2cccc(Cn3nnc4cc(Cl)c(Cl)cc43)c2)cc1` yielded a melting point of 167 to 169 °C. In the case of `O=C(Nc1cccc(Cn2nnc3cc(Cl)c(Cl)cc32)c1)c1ccc(C(F)(F)F)cc1`, the melting point is reported as 211 to 213 °C. With `O=C(Nc1cccc(Cn2nnc3cc(Cl)c(Cl)cc32)c1)c1ccc([N+](=O)[O-])cc1` the melting point was 217 to 218 °C. `Nc1ccc(C(=O)Nc2cccc(Cn3nnc4cc(Cl)c(Cl)cc43)c2)cc1` gave a melting point of 101 to 102 °C. With `Cc1cc2nnn(Cc3ccc(N)cc3)c2cc1C` [12b] the melting point was 184 to 186 °C. For `Nc1ccc(Cn2nnc3c(F)cccc32)cc1` [12e], the melting point was 164 to 167 °C. Compound `CCC(=O)Nc1cccc(Cn2nnc3cc(Cl)c(Cl)cc32)c1` [36a] has a melting point of 145 to 146 °C. With `COc1ccc(C(=O)Nc2ccc(Cn3nnc4ccccc43)cc2)cc1` [86c] the melting point was 172 to 174 °C.

Tested on: not listed separately
Experiment: Cytotoxicity in mock-infected MDBK cells (MTT)
Details: cattle (Bos taurus)
Work on `NC(=O)c1ncn([C@@H]2O[C@H](CO)[C@@H](O)[C@H]2O)n1` [Ribav, ribavirin, reference compound] yielded a CC50 of 52 µM.

Same assay, conditions: cattle (Bos taurus), mock-infected
Compound `COc1ccc(C(=O)Nc2ccc(Cn3nnc4ccccc43)cc2)cc1` [86c] has a CC50 of 87 µM. With `C[C@@]1(O)[C@H](O)[C@@H](CO)O[C@H]1n1cnc2c(=O)[nH]c(N)nc21` [NM108, 2′-C-methyl-guanosine, reference compound] the CC50 was > 100 µM. `NC(=O)c1ncn([C@@H]2O[C@H](CO)[C@@H](O)[C@H]2O)n1` [Ribav, ribavirin, reference compound] showed a CC50 of 35 µM.

Tested on: not listed separately
Experiment: Cytotoxicity in mock-infected Vero-76 monolayers
Details: African green monkey (Cercopithecus aethiops), Vero-76 cell monolayers, mock-infected
`COc1ccc(C(=O)Nc2ccc(Cn3nnc4ccccc43)cc2)cc1` [86c] showed a CC50 of 85 µM. In the case of `Nc1nc2c(ncn2COCCO)c(=O)[nH]1` [ACG, acycloguanosine, reference compound], the CC50 is reported as > 100 µM. Compound `Cc1cc(CCCOc2c(C)cc(-c3noc(C(F)(F)F)n3)cc2C)on1` [Plec, pleconaril, reference compound] has a CC50 of 77 ± 6.8 µM.

Tested on: not listed separately
Experiment: Cytotoxicity in mock-infected BHK-21 monolayers (MTT)
Details: Syrian hamster (Mesocricetus auratus), BHK-21 cell monolayers, mock-infected
`COc1ccc(C(=O)Nc2ccc(Cn3nnc4ccccc43)cc2)cc1` [86c] showed a CC50 of 95 µM. For `C[C@@]1(O)[C@H](O)[C@@H](CO)O[C@H]1n1cnc2c(=O)[nH]c(N)nc21` [NM108, 2′-C-methyl-guanosine, reference compound], the CC50 was > 100 µM.
